Results as given in patent publication US11840527B2, “Non-fused thiophene derivatives and their uses” (ENYO PHARMA, priority 2018, dated 2023).
pIC50: −log10 of the molar value.

Tested on: H1N1 (influenza A/New Caledonia/20/99)
Assay: Antiviral effect on A549 cells infected with H1N1
Assay type: cell-based, H1N1 A/New Caledonia/20/99 virus
Conditions: Influenza A virus, MOI 0.1, 48 h post-infection, MUNANA neuraminidase readout
Protocol: The antiviral effect of the compounds of the invention have been tested on A549 cell lines infected with H1N1 (influenza A/New Caledonia/20/99).
Human A549 cells (80,000 cells/well in a 96 well plate) were treated with a range of concentration of test compounds and immediately infected by H1N1 A/New Caledonia/20/99 virus (clinical isolate) at MOI of 0.1 in DMEM/1% Penicillin/streptomycin supplemented with […] TPCK trypsin (Sigma) and incubated at 37° C. in 5% CO2. 48 h post-infection, supernatants (25 μl) were collected and transferred into a 96-well black flat-bottom plate, mixed with 25 μl PBS with Ca++/Mg++ (Thermo Fisher) and 50 μl of 2′-(4-Methylumbelliferyl)-ax-D-N-acetylneuraminic acid sodium salt hydrate stock-solution (20 μM, MUNANA, Sigma). Plates were incubated 1h at 37° C. and reaction is stopped by adding 100 μl of Stop Solution (glycine 0.1 M pH10.7/25% ethanol). The amount of fluorescent product released by MUNANA hydrolysis (4-MU) was measured in a Tecan spectrophotometer with excitation and emission wavelengths of 365 and 450 nm respectively.

SMILES | pIC50
Cc1sc(NC(=O)c2ccccc2)c(C(=O)O)c1-c1ccc(Cl)cc1 [Compound #4, 2-Benzamido-4-(4-chlorophenyl)-5-methyl-thiophene-3-carboxylic acid] | 6.77
Cc1sc(NC(=O)c2ccc(OC(F)F)cc2)c(C(=O)O)c1-c1ccc(Cl)cc1 [Compound #5, 4-(4-Chlorophenyl)-2-[[4-(difluoromethoxy)benzoyl]amino]-5-methyl-thiophene-3-carboxylic acid] | 6.59
O=C(Nc1sc(Cl)c(-c2ccc(Cl)c(F)c2)c1C(=O)O)c1ccccc1 [Compound #6, 2-Benzamido-5-chloro-4-(4-chloro-3-fluoro-phenyl)thiophene-3-carboxylic acid] | 6.61
O=C(Nc1scc(C2CCCC2)c1C(=O)O)c1ccccc1 [Compound #10, 2-Benzamido-4-cyclopentyl-thiophene-3-carboxylic acid] | 6.69
O=C(Nc1scc(C2CCCCC2)c1C(=O)O)c1ccc(OC(F)F)cc1 [Compound #11, 4-Cyclohexyl-2-[[4-(difluoromethoxy)benzoyl]amino]thiophene-3-carboxylic acid] | 6.38
O=C(Nc1sc(Cl)c(C2CCCCC2)c1C(=O)O)c1ccccc1 [Compound #12, 2-Benzamido-5-chloro-4-cyclohexyl-thiophene-3-carboxylic acid] | 6.61
O=C(Nc1sc(Cl)c(C2CCCCC2)c1C(=O)O)c1ccc(OC(F)F)cc1 [Compound #13, 5-Chloro-4-cyclohexyl-2-[[4-(difluoromethoxy)benzoyl]amino]thiophene-3-carboxylic acid] | 6.43
Cc1ccccc1C(=O)Nc1sc(Cl)c(C2CCCCC2)c1C(=O)O [Compound #14, 5-Chloro-4-cyclohexyl-2-[(2-methylbenzoyl)amino]thiophene-3-carboxylic acid] | 6.30
O=C(Nc1sc(Cl)c(C2CCCCC2)c1C(=O)O)c1ccc(N2CCOCC2)cc1 [Compound #15, 5-Chloro-4-cyclohexyl-2-[(4-morpholinobenzoyl)amino]thiophene-3-carboxylic acid] | 6.65
O=C(Nc1scc(-c2ccc(C(F)(F)F)cc2)c1C(=O)O)c1ccccc1 [Compound #20, 2-Benzamido-4-[4-(trifluoromethyl)phenyl]thiophene-3-carboxylic acid] | 6.51
Cc1ccc(-c2csc(NC(=O)c3ccccc3)c2C(=O)O)cc1 [Compound #21, 2-Benzamido-4-(p-tolyl)thiophene-3-carboxylic acid] | 6.21
Cc1ccc(-c2csc(NC(=O)c3ccccc3)c2C(=O)O)cc1C [Compound #22, 2-Benzamido-4-(3,4-dimethylphenyl)thiophene-3-carboxylic acid] | 6.26
Cc1ccc(-c2c(Cl)sc(NC(=O)c3ccccc3)c2C(=O)O)cc1C [Compound #23, 2-Benzamido-5-chloro-4-(3,4-dimethylphenyl)thiophene-3-carboxylic acid] | 6.38
Cc1ccc(-c2c(Cl)sc(NC(=O)c3ccccc3)c2C(=O)O)cc1 [Compound #24, 2-Benzamido-5-chloro-4-(p-tolyl)thiophene-3-carboxylic acid] | 6.46
COc1ccc(C(=O)Nc2scc(C3CCCCC3)c2C(=O)O)cc1OC [Compound #25, 4-Cyclohexyl-2-[(3,4-dimethoxybenzoyl)amino]thiophene-3-carboxylic acid] | 6.14
Cc1sc(NC(=O)c2ccccc2)c(C(=O)O)c1C1CCCCC1 [Compound #27, 2-Benzamido-4-cyclohexyl-5-methyl-thiophene-3-carboxylic acid] | 6.06
O=C(Nc1scc(-c2ccccc2)c1C(=O)O)c1ccc(OC(F)F)cc1 [Compound #28, 2-[[4-(Difluoromethoxy)benzoyl]amino]-4-phenyl-thiophene-3-carboxylic acid] | 5.90
O=C(Nc1scc(C2CCCCC2)c1C(=O)O)c1ccc(N2CCOCC2)cc1 [Compound #29, 4-Cyclohexyl-2-[(4-morpholinobenzoyl)amino]thiophene-3-carboxylic acid] | 5.90
Cc1sc(NC(=O)c2ccc(OC(F)F)cc2)c(C(=O)O)c1-c1ccccc1 [Compound #30, 2-[[4-(Difluoromethoxy)benzoyl]amino]-5-methyl-4-phenyl-thiophene-3-carboxylic acid] | 5.86
O=C(Nc1sc(Cl)c(-c2ccccc2)c1C(=O)O)c1ccc(OC(F)F)cc1 [Compound #31, 5-Chloro-2-[[4-(difluoromethoxy)benzoyl]amino]-4-phenyl-thiophene-3-carboxylic acid] | 5.86
CC(C)(C)c1csc(NC(=O)c2ccccc2)c1C(=O)O [Compound #32, 2-Benzamido-4-tert-butyl-thiophene-3-carboxylic acid] | 5.83

SMILES | pIC50
O=C(Nc1sc(Cl)c(-c2ccccc2)c1C(=O)O)c1ccccc1 [Compound #33, 2-Benzamido-5-chloro-4-phenyl-thiophene-3-carboxylic acid] | 5.83
Cc1sc(NC(=O)c2ccccc2)c(C(=O)O)c1-c1ccccc1 [Compound #34, 2-Benzamido-5-methyl-4-phenyl-thiophene-3-carboxylic acid] | 5.83
O=C(Nc1scc(C2CC(F)(F)C2)c1C(=O)O)c1ccccc1 [Compound #35, 2-Benzamido-4-(3,3-difluorocyclobutyl)thiophene-3-carboxylic acid] | 5.78
O=C(Nc1scc(-c2cccc(Cl)c2)c1C(=O)O)c1ccccc1 [Compound #36, 2-Benzamido-4-(3-chlorophenyl)thiophene-3-carboxylic acid] | 5.78
O=C(Nc1scc(C2C3CCCCC32)c1C(=O)O)c1ccccc1 (stereo not drawn) [Compound #37, 2-Benzamido-4-norcaran-7-yl-thiophene-3-carboxylic acid] | 5.73
COc1ccc(-c2csc(NC(=O)c3ccccc3)c2C(=O)O)cc1 [Compound #38, 2-Benzamido-4-(4-methoxyphenyl)thiophene-3-carboxylic acid] | 5.73
CC1(C)C(c2csc(NC(=O)c3ccccc3)c2C(=O)O)C1(C)C [Compound #39, 2-Benzamido-4-(2,2,3,3-tetramethylcyclopropyl)thiophene-3-carboxylic acid] | 5.63
O=C(Nc1sc(C2CCCCC2)cc1C(=O)O)c1ccc(OC(F)F)cc1 [Compound #41, 5-Cyclohexyl-2-[[4-(difluoromethoxy)benzoyl]amino]thiophene-3-carboxylic acid] | 5.59
O=C(Nc1scc(-c2ccccc2)c1C(=O)O)c1ccccc1 [Compound #43, 2-Benzamido-4-phenyl-thiophene-3-carboxylic acid] | 5.23
O=C(Nc1scc(-c2ccccc2Cl)c1C(=O)O)c1ccccc1 [Compound #44, 2-Benzamido-4-(2-chlorophenyl)thiophene-3-carboxylic acid] | 5.18
Cc1ccccc1C(=O)Nc1sc(-c2ccccc2)cc1C(=O)O [Compound #45, 2-[(2-Methylbenzoyl)amino]-5-phenyl-thiophene-3-carboxylic acid] | 5.07
COc1ccc(C(=O)Nc2scc(-c3ccccc3)c2C(=O)O)cc1OC [Compound #46, 2-[(3,4-Dimethoxybenzoyl)amino]-4-phenyl-thiophene-3-carboxylic acid] | 5.02
CC(C)(C)[C@H]1CC[C@H](c2csc(NC(=O)c3ccccc3)c2C(=O)O)CC1 [Compound #48, 2-Benzamido-4-(trans-4-tert-butylcyclohexyl)thiophene-3-carboxylic acid] | 6.46
O=C(Nc1sc(Cl)c(-c2ccc(C(F)(F)F)cc2)c1C(=O)O)c1ccccc1 [Compound #50, 2-Benzamido-5-chloro-4-[4-(trifluoromethyl)phenyl]thiophene-3-carboxylic acid] | 6.49
CC(C)(C)[C@H]1CC[C@@H](c2csc(NC(=O)c3ccccc3)c2C(=O)O)CC1 [Compound #54, 2-Benzamido-4-(cis-4-tert-butylcyclohexyl)thiophene-3-carboxylic acid] | 6.34
O=C(Nc1scc(C2CCCC2)c1C(=O)O)c1ccc(N2CCOCC2)cc1 [Compound #59, 4-Cyclopentyl-2-[(4-morpholinobenzoyl)amino]thiophene-3-carboxylic acid] | 7.12
O=C(Nc1scc(C2CCCC2)c1C(=O)O)c1ccc(NC2CCOCC2)cc1 [Compound #60, 4-Cyclopentyl-2-[[4-(tetrahydropyran-4-ylamino)benzoyl]amino]thiophene-3-carboxylic acid] | 7.33
COCCNc1ccc(C(=O)Nc2scc(C3CCCC3)c2C(=O)O)cc1 [Compound #61, 4-Cyclopentyl-2-[[4-(2-methoxyethylamino)benzoyl]amino]thiophene-3-carboxylic acid] | 7.00
COC1CN(c2ccc(C(=O)Nc3scc(C4CCCC4)c3C(=O)O)cc2)C1 [Compound #62, 4-Cyclopentyl-2-[[4-(3-methoxyazetidin-1-yl)benzoyl]amino]thiophene-3-carboxylic acid] | 7.28
O=C(Nc1scc(C2CC(c3ccccc3)C2)c1C(=O)O)c1ccccc1 (stereo not drawn) [Compound #63, 2-Benzamido-4-(3-phenylcyclobutyl)thiophene-3-carboxylic acid] | 6.82
O=C(Nc1scc(C2CCCC2)c1C(=O)O)c1ccc(NCC2CCOCC2)cc1 [Compound #66, 4-Cyclopentyl-2-[[4-(tetrahydropyran-4-ylmethylamino)benzoyl]amino]thiophene-3-carboxylic acid] | 7.82
